Laboratory results reported in patent publication US20220324835A1 (Nurix Therapeutics, Inc., priority 2018, published 2022).

Columns and labels:
[1] = target: Cbl-b (Homo sapiens, UniProt Q13191); experiment: Cbl-b inhibition assay (Cbl-b activity assay, FRET, Biological Example 1; 100 mM NaCl, 60 nM Src kinase); format: biochemical; details: upper bound stated in text lists; read-out: IC50 values in the Cbl-b inhibition assay of Biological Example 1
Procedure, shortened: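 Inhibitor activity is measured as reduced terbium-to-fluorescein FRET between streptavidin-terbium on biotinylated Cbl-b and Bodipy-fluorescein ubiquitin carried by an irreversible UbcH5B-Ub conjugate, binding of which depends on Src phosphorylation of Cbl-b.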

[2] = system: T-cell; experiment: IL-2 secretion from T-cells co-stimulated with anti-CD3 and anti-CD28 antibody (Biological Example 2); format: cell-based, human; details: Homo sapiens, T-cell, fold change over baseline, primary human total T-cells, read-out: IL-2 secretion Anti-CD3/Anti-CD28 stimulation; for fold induction at 0.3 µM: 0.3 μM Cbl-b inhibitor; for fold induction at 1 µM: 1 μM Cbl-b inhibitor; for fold induction at 4 µM: 4 μM Cbl-b inhibitor
Procedure, shortened: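 No assay protocol given; T-cells stimulated with anti-CD3 alone or anti-CD3 plus anti-CD28, with or without Cbl-b inhibitor. Activation read as IL-2 secretion or CD25 surface staining, expressed as fold over baseline from uninhibited cells […].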

[3] = system: T-cell; experiment: IL-2 secretion from T-cells stimulated with anti-CD3 antibody alone (Biological Example 2); format: cell-based, human; details: T-cell, fold change over baseline, primary human total T-cells, read-out: IL-2 secretion Anti-CD3 stimulation; for fold induction at 1 µM: 1 μM Cbl-b inhibitor; for fold induction at 8 µM: 8 μM Cbl-b inhibitor
[4] = system: T-cell; experiment: CD25 cell surface staining on T-cells stimulated with anti-CD3 antibody alone (Biological Example 2); format: cell-based, human; details: T-cell, fold change over baseline, primary human total T-cells, read-out: CD25 staining Anti-CD3 stimulation; for fold induction at 1 µM: 1 μM Cbl-b inhibitor; for fold induction at 8 µM: 8 μM Cbl-b inhibitor

Sequence of Cbl-b (Q13191 36-427): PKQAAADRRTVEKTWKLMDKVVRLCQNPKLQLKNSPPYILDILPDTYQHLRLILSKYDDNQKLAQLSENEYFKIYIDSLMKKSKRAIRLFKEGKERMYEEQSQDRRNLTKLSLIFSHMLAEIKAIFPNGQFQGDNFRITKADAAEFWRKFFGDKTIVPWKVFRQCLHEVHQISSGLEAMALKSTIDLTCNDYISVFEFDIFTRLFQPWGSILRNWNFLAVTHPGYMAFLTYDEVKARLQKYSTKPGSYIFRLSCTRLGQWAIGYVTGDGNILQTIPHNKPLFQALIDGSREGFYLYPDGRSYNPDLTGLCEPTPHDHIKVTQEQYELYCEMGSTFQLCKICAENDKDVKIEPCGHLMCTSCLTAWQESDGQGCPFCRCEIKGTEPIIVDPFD

C[C@H](Sc1nncn1C)c1cccc(NC(=O)c2ccc(F)c(C3CC3)n2)c1 [Compound 91, 6-Cyclopropyl-5-fluoro-N-[3-[(1S)-1-[(4-methyl-1,2,4-triazol-3-yl)sulfanyl]ethyl]phenyl]pyridine-2-carboxamide]
IC50 [1]: ≤ 0.1 µM
fold induction at 0.3 µM [2]: 1.01 to 2.5
fold induction at 1 µM [2]: 2.51 to 5
fold induction at 4 µM [2]: > 7.5
fold induction at 1 µM [3]: < 0.05
fold induction at 8 µM [3]: 0.101 to 0.15
fold induction at 1 µM [4]: 0.601 to 0.8
fold induction at 8 µM [4]: > 1

C[C@H](Sc1nncn1C)c1cccc(NC(=O)c2ccc(C#N)c(C3CC3)n2)c1 [Compound 92, 5-cyano-6-cyclopropyl-N-[3-[(1S)-1-[(4-methyl-1,2,4-triazol-3-yl)sulfanyl]ethyl]phenyl]pyridine-2-carboxamide]
IC50 [1]: ≤ 0.1 µM
fold induction at 0.3 µM [2]: 1.01 to 2.5
fold induction at 1 µM [2]: 2.51 to 5
fold induction at 4 µM [2]: 5 to 7.5
fold induction at 1 µM [3]: < 0.05
fold induction at 8 µM [3]: 0.101 to 0.15
fold induction at 1 µM [4]: 0.601 to 0.8
fold induction at 8 µM [4]: > 1

COc1ccc(C(=O)Nc2cccc([C@H](C)Sc3nncn3C)c2)nc1C1CC1 [Compound 93, 6-cyclopropyl-5-methoxy-N-[3-[(1S)-1-[(4-methyl-1,2,4-triazol-3-yl)sulfanyl]ethyl]phenyl]pyridine-2-carboxamide]
IC50 [1]: ≤ 0.1 µM
fold induction at 0.3 µM [2]: 1.01 to 2.5
fold induction at 1 µM [2]: 1.01 to 2.5
fold induction at 4 µM [2]: 2.51 to 5
fold induction at 1 µM [3]: < 0.05
fold induction at 8 µM [3]: 0.101 to 0.15
fold induction at 1 µM [4]: 0.601 to 0.8
fold induction at 8 µM [4]: > 1

C[C@H](Cc1nncn1C)c1cccc(NC(=O)c2cccc(C(F)(F)F)n2)c1 [Compound 183a, (R)-N-(3-(1-(4-methyl-4H-1,2,4-triazol-3-yl)propan-2-yl)phenyl)-6-(trifluoromethyl)picolinamide]
IC50 [1]: ≤ 0.1 µM
fold induction at 0.3 µM [2]: 2.51 to 5
fold induction at 1 µM [2]: 5 to 7.5
fold induction at 4 µM [2]: > 7.5
fold induction at 1 µM [3]: > 0.201
fold induction at 8 µM [3]: > 0.201
fold induction at 1 µM [4]: > 1
fold induction at 8 µM [4]: > 1

C[C@H](Cc1nncn1C)c1cccc(NC(=O)c2cc(C3CC3)cc(C(F)(F)F)n2)c1 [Compound 191, (R)-4-cyclopropyl-N-(3-(1-(4-methyl-4H-1,2,4-triazol-3-yl)propan-2-yl)phenyl)-6-(trifluoromethyl)picolinamide]
IC50 [1]: ≤ 0.1 µM
fold induction at 0.3 µM [2]: 2.51 to 5
fold induction at 1 µM [2]: 5 to 7.5
fold induction at 4 µM [2]: > 7.5
fold induction at 1 µM [3]: > 0.201
fold induction at 8 µM [3]: > 0.201
fold induction at 1 µM [4]: > 1
fold induction at 8 µM [4]: > 1

C[C@H](Cc1nncn1C)c1cccc(NC(=O)c2cc(C3CC3)nc(C3CC3)n2)c1 [Compound 193, (R)-2,6-dicyclopropyl-N-(3-(1-(4-methyl-4H-1,2,4-triazol-3-yl)propan-2-yl)phenyl)pyrimidine-4-carboxamide]
IC50 [1]: ≤ 0.1 µM
fold induction at 0.3 µM [2]: 2.51 to 5
fold induction at 1 µM [2]: 5 to 7.5
fold induction at 4 µM [2]: > 7.5
fold induction at 1 µM [3]: > 0.201
fold induction at 8 µM [3]: > 0.201
fold induction at 1 µM [4]: > 1
fold induction at 8 µM [4]: > 1

Cc1cc(C(=O)Nc2cccc([C@H](C)Cc3nncn3C)c2)nc(C(F)(F)F)n1 [Compound 194, (R)-6-methyl-N-(3-(1-(4-methyl-4H-1,2,4-triazol-3-yl)propan-2-yl)phenyl)-2-(trifluoromethyl)pyrimidine-4-carboxamide]
IC50 [1]: ≤ 0.1 µM
fold induction at 0.3 µM [2]: 2.51 to 5
fold induction at 1 µM [2]: > 7.5
fold induction at 4 µM [2]: > 7.5
fold induction at 1 µM [3]: > 0.201
fold induction at 8 µM [3]: > 0.201
fold induction at 1 µM [4]: 0.801 to 1
fold induction at 8 µM [4]: > 1

Cc1cc(C(=O)Nc2cccc([C@H](C)Cc3nncn3C)c2)nc(C2CC2)n1 [Compound 195, (R)-2-cyclopropyl-6-methyl-N-(3-(1-(4-methyl-4H-1,2,4-triazol-3-yl)propan-2-yl)phenyl)pyrimidine-4-carboxamide]
IC50 [1]: ≤ 0.1 µM
fold induction at 0.3 µM [2]: 5 to 7.5
fold induction at 1 µM [2]: > 7.5
fold induction at 4 µM [2]: > 7.5
fold induction at 1 µM [3]: > 0.201
fold induction at 8 µM [3]: > 0.201
fold induction at 1 µM [4]: > 1
fold induction at 8 µM [4]: > 1

C[C@H](Cc1nncn1C)c1cccc(NC(=O)c2nc3c(C(F)(F)F)cccc3[nH]2)c1 [Compound 196, N-[3-[(1R)-1-methyl-2-(4-methyl-1,2,4-triazol-3-yl)ethyl]phenyl]-4-(trifluoromethyl)-1H-benzimidazole-2-carboxamide]
IC50 [1]: ≤ 0.1 µM
fold induction at 0.3 µM [2]: 2.51 to 5
fold induction at 1 µM [2]: 5 to 7.5
fold induction at 4 µM [2]: > 7.5
fold induction at 1 µM [3]: > 0.201
fold induction at 8 µM [3]: > 0.201
fold induction at 1 µM [4]: > 1
fold induction at 8 µM [4]: > 1

C[C@H](Cc1nncn1C)c1cccc(NC(=O)c2ccnc(C3CC3)n2)c1 [Compound 199, (R)-2-cyclopropyl-N-(3-(1-(4-methyl-4H-1,2,4-triazol-3-yl)propan-2-yl)phenyl)pyrimidine-4-carboxamide]
IC50 [1]: ≤ 0.1 µM
fold induction at 0.3 µM [2]: 2.51 to 5
fold induction at 1 µM [2]: 5 to 7.5
fold induction at 4 µM [2]: > 7.5
fold induction at 1 µM [3]: > 0.201
fold induction at 8 µM [3]: > 0.201
fold induction at 1 µM [4]: > 1
fold induction at 8 µM [4]: > 1

C[C@H](Cc1nncn1C)c1cccc(NC(=O)c2ccc(CO)c(C3CC3)n2)c1 [Compound 203, 6-cyclopropyl-5-(hydroxymethyl)-N-[3-[(2R)-1-(4-methyl-4H-1,2,4-triazol-3-yl)propan-2-yl]phenyl]pyridine-2-carboxamide]
IC50 [1]: ≤ 0.1 µM
fold induction at 0.3 µM [2]: > 7.5
fold induction at 1 µM [2]: > 7.5
fold induction at 4 µM [2]: > 7.5
fold induction at 1 µM [3]: > 0.201
fold induction at 8 µM [3]: > 0.201
fold induction at 1 µM [4]: > 1
fold induction at 8 µM [4]: > 1

CC(=O)N1CCN(c2ccc3cnc(C(=O)Nc4cccc([C@H](C)Cc5nncn5C)c4)cc3c2)CC1 [Compound 211, (R)-6-(4-acetylpiperazin-1-yl)-N-(3-(1-(4-methyl-4H-1,2,4-triazol-3-yl)propan-2-yl)phenyl)isoquinoline-3-carboxamide 2,2,2-trifluoroacetate]
IC50 [1]: ≤ 0.1 µM
fold induction at 0.3 µM [2]: 2.51 to 5
fold induction at 1 µM [2]: 5 to 7.5
fold induction at 4 µM [2]: > 7.5
fold induction at 1 µM [3]: > 0.201
fold induction at 8 µM [3]: > 0.201
fold induction at 1 µM [4]: 0.601 to 0.8
fold induction at 8 µM [4]: > 1

C[C@H](Cc1nncn1C)c1cccc(NC(=O)c2cc(C(=O)N3CC[C@H](O)C3)cc(C(F)(F)F)n2)c1 [Compound 220, 4-((S)-3-hydroxypyrrolidine-1-carbonyl)-N-(3-((R)-1-(4-methyl-4H-1,2,4-triazol-3-yl)propan-2-yl)phenyl)-6-(trifluoromethyl)picolinamide]
IC50 [1]: ≤ 0.1 µM
fold induction at 0.3 µM [2]: 2.51 to 5
fold induction at 1 µM [2]: > 7.5
fold induction at 4 µM [2]: > 7.5
fold induction at 1 µM [3]: > 0.201
fold induction at 8 µM [3]: > 0.201
fold induction at 1 µM [4]: > 1
fold induction at 8 µM [4]: > 1

C[C@H](Cc1nncn1C)c1cccc(N2Cc3c(cccc3C(F)(F)F)C2=O)c1 [Compound 255a, (R)-2-(3-(1-(4-methyl-4H-1,2,4-triazol-3-yl)propan-2-yl)phenyl)-4-(trifluoromethyl)isoindolin-1-one]
IC50 [1]: ≤ 0.1 µM
fold induction at 0.3 µM [2]: 1.01 to 2.5
fold induction at 1 µM [2]: 2.51 to 5
fold induction at 4 µM [2]: 5 to 7.5
fold induction at 1 µM [3]: 0.051 to 0.1
fold induction at 8 µM [3]: > 0.201
fold induction at 1 µM [4]: 0.601 to 0.8
fold induction at 8 µM [4]: > 1

C[C@H](Cc1nncn1C)c1cccc(N2Cc3c(cc(C(=O)N4CC[C@H](O)C4)cc3C(F)(F)F)C2=O)c1 [Compound 274, 6-((S)-3-hydroxypyrrolidine-1-carbonyl)-2-(3-((R)-1-(4-methyl-4H-1,2,4-triazol-3-yl)propan-2-yl)phenyl)-4-(trifluoromethyl)isoindolin-1-one]
IC50 [1]: ≤ 0.1 µM
fold induction at 0.3 µM [2]: 1.01 to 2.5
fold induction at 1 µM [2]: 2.51 to 5
fold induction at 4 µM [2]: > 7.5
fold induction at 1 µM [3]: 0.151 to 0.2
fold induction at 8 µM [3]: > 0.201
fold induction at 1 µM [4]: 0.801 to 1
fold induction at 8 µM [4]: > 1

C[C@H](Cc1nncn1C)c1cccc(N2Cc3c(cc(C(=O)N4C[C@@H](O)C[C@H]4C)cc3C(F)(F)F)C2=O)c1 [Compound 275, 6-((2R,4S)-4-hydroxy-2-methylpyrrolidine-1-carbonyl)-2-(3-((R)-1-(4-methyl-4H-1,2,4-triazol-3-yl)propan-2-yl)phenyl)-4-(trifluoromethyl)isoindolin-1-one]
IC50 [1]: ≤ 0.1 µM
fold induction at 0.3 µM [2]: 2.51 to 5
fold induction at 1 µM [2]: 5 to 7.5
fold induction at 4 µM [2]: > 7.5
fold induction at 1 µM [3]: > 0.201
fold induction at 8 µM [3]: > 0.201
fold induction at 1 µM [4]: 0.801 to 1
fold induction at 8 µM [4]: > 1
